# From ChEMBL document CHEMBL3885881, “DrugMatrix”
# Columns and labels:
# Rattus norvegicus [1] = species on record: Rattus norvegicus; assay: DrugMatrix - Regimen: Daily Repeat; format: toxicity, organism-based, Sprague-Dawley; parameters: regimen Daily Repeat, gender Male, age 6-8 weeks; details: in vivo, po, 60 mg/kg, route oral GAVAGE, dose level High, vehicle 100 % WATER
# Rattus norvegicus [2] = species on record: Rattus norvegicus; format: toxicity, organism-based, Sprague-Dawley; details: in vivo, po, 60 mg/kg, 24 h, route oral GAVAGE, dose level High, time 1 day, vehicle 100 % WATER
# Description: DrugMatrix - Regimen: Single
# [3] = […], tissue Plasma, time 14 day
compound,measurement,setting,value
"Nc1ccc(O)c(N)c1 [2,4-DIAMINOPHENOL]",URIC ACID,"Rattus norvegicus [1]; 120 h, tissue Plasma, time 5 day",0.67 mg/dL
same,ABSOLUTE BASOPHIL,"Rattus norvegicus [1]; […], tissue Blood, time 14 day",0 CELLS/uL
same,ABSOLUTE EOSINOPHIL,"Rattus norvegicus [1]; […], tissue Blood, time 14 day",124 CELLS/uL
same,ABSOLUTE LYMPHOCYTE,"Rattus norvegicus [1]; […], tissue Blood, time 14 day",13347.2 CELLS/uL
same,ABSOLUTE MONOCYTE,"Rattus norvegicus [1]; […], tissue Blood, time 14 day",291 CELLS/uL
same,ABSOLUTE SEGMENTED NEUTROPHIL,"Rattus norvegicus [1]; […], tissue Blood, time 14 day",2297.8 CELLS/uL
same,BASOPHIL,"Rattus norvegicus [1]; […], tissue Blood, time 14 day",0%
same,EOSINOPHIL,"Rattus norvegicus [1]; […], tissue Blood, time 14 day",0.8%
same,ERYTHROCYTE COUNT,"Rattus norvegicus [1]; […], tissue Blood, time 14 day",5.92 x10E6/uL
same,HEMATOCRIT,"Rattus norvegicus [1]; […], tissue Blood, time 14 day",34.56%
same,HEMOGLOBIN,"Rattus norvegicus [1]; […], tissue Blood, time 14 day",13 G/DL
same,LEUKOCYTE COUNT,"Rattus norvegicus [1]; […], tissue Blood, time 14 day",16.06 x10E3/uL
same,LYMPHOCYTE,"Rattus norvegicus [1]; […], tissue Blood, time 14 day",83%
same,MEAN CORPUSCULAR HEMOGLOBIN,"Rattus norvegicus [1]; […], tissue Blood, time 14 day",22.04 pg
same,MEAN CORPUSCULAR HEMOGLOBIN CONCENTRATION,"Rattus norvegicus [1]; […], tissue Blood, time 14 day",37.6 G/DL
same,MEAN CORPUSCULAR VOLUME,"Rattus norvegicus [1]; […], tissue Blood, time 14 day",58.5 fL
same,MONOCYTE,"Rattus norvegicus [1]; […], tissue Blood, time 14 day",1.8%
same,NEUTROPHIL,"Rattus norvegicus [1]; […], tissue Blood, time 14 day",14.4%
same,NUCLEATED RED BLOOD CELLS,"Rattus norvegicus [1]; […], tissue Blood, time 14 day",0 /100WBC
same,PLATELET COUNT,"Rattus norvegicus [1]; […], tissue Blood, time 14 day",944.4 x10E3/uL
same,ALANINE AMINOTRANSFERASE,Rattus norvegicus [1]; [3],40.4 u/L
same,ALBUMIN,Rattus norvegicus [1]; [3],4.32 G/DL
same,ALKALINE PHOSPHATASE,Rattus norvegicus [1]; [3],271.4 u/L
same,ASPARTATE AMINOTRANSFERASE,Rattus norvegicus [1]; [3],76.6 u/L
same,BLOOD UREA NITROGEN,Rattus norvegicus [1]; [3],13.6 mg/dL
same,CARBON DIOXIDE,Rattus norvegicus [1]; [3],30.4 mmol/L
same,CHLORIDE,Rattus norvegicus [1]; [3],101.8 MEQ/L
same,CHOLESTEROL,Rattus norvegicus [1]; [3],67.4 mg/dL
same,CREATININE,Rattus norvegicus [1]; [3],0.15 mg/dL
same,GLUCOSE,Rattus norvegicus [1]; [3],150 mg/dL
same,LACTATE DEHYDROGENASE,Rattus norvegicus [1]; [3],271.8 u/L
same,LIPASE,Rattus norvegicus [1]; [3],7.8 u/L
same,PHOSPHORUS,Rattus norvegicus [1]; [3],13.62 mg/dL
same,POTASSIUM,Rattus norvegicus [1]; [3],6.71 MEQ/L
same,SODIUM,Rattus norvegicus [1]; [3],145.8 MEQ/L
same,TOTAL BILIRUBIN,Rattus norvegicus [1]; [3],0.14 mg/dL
same,TOTAL PROTEIN,Rattus norvegicus [1]; [3],6.06 G/DL
same,URIC ACID,Rattus norvegicus [1]; [3],1.14 mg/dL
same,ABSOLUTE EOSINOPHIL,Rattus norvegicus [2]; tissue Blood,80.67 CELLS/uL
same,ABSOLUTE LYMPHOCYTE,Rattus norvegicus [2]; tissue Blood,10585.67 CELLS/uL
same,ABSOLUTE MONOCYTE,Rattus norvegicus [2]; tissue Blood,630.67 CELLS/uL
same,ABSOLUTE SEGMENTED NEUTROPHIL,Rattus norvegicus [2]; tissue Blood,1169.67 CELLS/uL
same,BASOPHIL,Rattus norvegicus [2]; tissue Blood,0%
same,EOSINOPHIL,Rattus norvegicus [2]; tissue Blood,0.67%
same,ERYTHROCYTE COUNT,Rattus norvegicus [2]; tissue Blood,4.98 x10E6/uL
same,HEMATOCRIT,Rattus norvegicus [2]; tissue Blood,31.37%
same,HEMOGLOBIN,Rattus norvegicus [2]; tissue Blood,11.7 G/DL
same,LEUKOCYTE COUNT,Rattus norvegicus [2]; tissue Blood,12.47 x10E3/uL
same,LYMPHOCYTE,Rattus norvegicus [2]; tissue Blood,85%
same,MEAN CORPUSCULAR HEMOGLOBIN,Rattus norvegicus [2]; tissue Blood,23.63 pg
same,MEAN CORPUSCULAR HEMOGLOBIN CONCENTRATION,Rattus norvegicus [2]; tissue Blood,37.37 G/DL
same,MEAN CORPUSCULAR VOLUME,Rattus norvegicus [2]; tissue Blood,63.17 fL
same,MONOCYTE,Rattus norvegicus [2]; tissue Blood,5%
same,NEUTROPHIL,Rattus norvegicus [2]; tissue Blood,9.33%
same,NUCLEATED RED BLOOD CELLS,Rattus norvegicus [2]; tissue Blood,0 /100WBC
same,PLATELET COUNT,Rattus norvegicus [2]; tissue Blood,963 x10E3/uL
same,ALANINE AMINOTRANSFERASE,Rattus norvegicus [2]; tissue Plasma,60.67 u/L
same,ALBUMIN,Rattus norvegicus [2]; tissue Plasma,4.43 G/DL
same,ALKALINE PHOSPHATASE,Rattus norvegicus [2]; tissue Plasma,366.33 u/L
same,ASPARTATE AMINOTRANSFERASE,Rattus norvegicus [2]; tissue Plasma,78.33 u/L
same,BLOOD UREA NITROGEN,Rattus norvegicus [2]; tissue Plasma,12 mg/dL
same,CARBON DIOXIDE,Rattus norvegicus [2]; tissue Plasma,27 mmol/L
same,CHLORIDE,Rattus norvegicus [2]; tissue Plasma,103.33 MEQ/L
same,CHOLESTEROL,Rattus norvegicus [2]; tissue Plasma,77.33 mg/dL
same,CREATININE,Rattus norvegicus [2]; tissue Plasma,0.13 mg/dL
same,GLUCOSE,Rattus norvegicus [2]; tissue Plasma,149 mg/dL
same,LACTATE DEHYDROGENASE,Rattus norvegicus [2]; tissue Plasma,159 u/L
same,LIPASE,Rattus norvegicus [2]; tissue Plasma,8 u/L
same,PHOSPHORUS,Rattus norvegicus [2]; tissue Plasma,12.77 mg/dL
same,POTASSIUM,Rattus norvegicus [2]; tissue Plasma,6.85 MEQ/L
same,SODIUM,Rattus norvegicus [2]; tissue Plasma,145.33 MEQ/L
same,TOTAL BILIRUBIN,Rattus norvegicus [2]; tissue Plasma,0.1 mg/dL
same,TOTAL PROTEIN,Rattus norvegicus [2]; tissue Plasma,6 G/DL
same,URIC ACID,Rattus norvegicus [2]; tissue Plasma,1.37 mg/dL
